Measured values: US9862712B2, “Benzimidazole based EGFR inhibitors” (COUNCIL OF SCIENTIFIC & INDUSTRIAL RESEARCH, priority 2014, dated 2018)

What was measured:
MCF-7 Cell line = experiment: MTT cell proliferation assay, MCF-7 Cell line; assay type: cell-based; settings: Homo sapiens, MCF7, 72 h, MTT; for viability at 0.01 µM: MCF-7, 0.01 μM; for viability at 0.1 µM: MCF-7, 0.1 μM; for viability at 2.5 µM: MCF-7, 2.5 μM; for viability at 5 µM: MCF-7, 5 μM; for viability at 10 µM: MCF-7, 10 μM
Protocol: (§1) 1. Protocol Followed for Anti Cancer Activity and Results, Cell Proliferation Assays: Cell lines used herein were purchased from NCCS (National Center for Cell Sciences) Pune, India. Invitro Activity was performed in NCL (National Chemical Laboratory) Pune. Each cell line was plated in 96-well microtiter plates (10,000 cells per well), and serial dilutions of indicated compounds were added. At the end of the incubation period (72 h at 37° C.), cell viability was determined by a tetrazolium dye, MTT (3-(4,5-dimethylthiazol-2-yl)-2,5-diphenyl tetrazolium bromide) (Promega, USA). The formazan crystals were dissolved in DMSO, and the absorbance at 600 nm was recorded using an ELISA plate reader. IC50 values were calculated using nonlinear regression and defined as the concentration needed for a 50% reduction in absorbance of treated versus untreated control cells.
Table 4 indicates anticancer activity against A549 Cell line. The Gefitinib was used as standard and % cell Viable was measured compared to control. The procedure used was MTT assay as mentioned. […] By using the above procedure, the compounds of the invention were tested on MCF-7 Cell line and the results obtained are presented below in table 5, Refer FIG. 2.

[1] = system: U87MG Cell line (Glioblastoma cell line); experiment: MTT cell proliferation assay, U87MG Cell line; assay type: cell-based; settings: Homo sapiens, U-87 MG, U87MG, 72 h, MTT
Protocol: as §1
By using the above procedure, the compounds of the invention were tested on U87MG Cell line (glioblastoma cell line) and the results obtained are presented below in table 8, Refer FIG. 5.

[2] = system: A549 Cell line (Lung Cancer Cell line); experiment: MTT cell proliferation assay, A549 Cell line; assay type: cell-based, human; settings: Homo sapiens, 72 h, MTT; for viability at 0.01 µM: A549, 0.01 μM; for viability at 0.1 µM: A549, 0.1 μM; for viability at 2.5 µM: A549, 2.5 μM; for viability at 5 µM: A549, 5 μM; for viability at 10 µM: A549, 10 μM
Protocol: as §1
By using the above procedure, the compounds of the invention were tested on A549 Cell line and the results obtained are presented below in table 4, Refer FIG. 1.

HOP-62 Cell line = experiment: MTT cell proliferation assay, HOP-62 Cell line; assay type: cell-based; settings: Homo sapiens, 72 h, MTT; for viability at 0.01 µM: HOP-62, 0.01 μM; for viability at 0.1 µM: HOP-62, 0.1 μM; for viability at 2.5 µM: HOP-62, 2.5 μM; for viability at 5 µM: HOP-62, 5 μM; for viability at 10 µM: HOP-62, 10 μM
Protocol: as §1
By using the above procedure, the compounds of the invention were tested on HOP-62 Cell line and the results obtained are presented below in table 6, Refer FIG. 3.

MDA-MB-436 Cell line = experiment: MTT cell proliferation assay, MDA-MB-436 Cell line; assay type: cell-based; settings: Homo sapiens, 72 h, MTT; for viability at 0.01 µM: MDA-MB-436, 0.01 μM; for viability at 0.1 µM: MDA-MB-436, 0.1 μM; for viability at 2.5 µM: MDA-MB-436, 2.5 μM; for viability at 5 µM: MDA-MB-436, 5 μM; for viability at 10 µM: MDA-MB-436, 10 μM
Protocol: as §1
By using the above procedure, the compounds of the invention were tested on MDA-MB-436 Cell line and the results obtained are presented below in table 7, Refer FIG. 4.

SMILES	viability at 0.01 µM (MCF-7 Cell line)	viability at 0.1 µM (MCF-7 Cell line)	viability at 2.5 µM (MCF-7 Cell line)	viability at 5 µM (MCF-7 Cell line)	viability at 10 µM (MCF-7 Cell line)	viability at 0.01 µM [1]	viability at 0.1 µM [1]	viability at 2.5 µM [1]	viability at 5 µM [1]	viability at 10 µM [1]	viability at 0.01 µM (HOP-62 Cell line)	viability at 0.1 µM (HOP-62 Cell line)	viability at 2.5 µM (HOP-62 Cell line)	viability at 5 µM (HOP-62 Cell line)	viability at 10 µM (HOP-62 Cell line)	viability at 0.01 µM (MDA-MB-436 Cell line)	viability at 0.1 µM (MDA-MB-436 Cell line)	viability at 2.5 µM (MDA-MB-436 Cell line)	viability at 5 µM (MDA-MB-436 Cell line)	viability at 10 µM (MDA-MB-436 Cell line)	other results
Nc1nc(Nc2cccc(C(F)(F)F)c2)sc1-c1nc2ccccc2[nH]1 [Molecule S4-M8, 5-(1H-benzo[d]imidazol-2-yl)-N2-(3-(trifluoromethyl)phenyl)thiazole-2,4-diamine]	98.6%	90.8%	82.6%	79.6%	69.6%	86.6%	73.8%	61.6%	54.6%	41.6%	99.6%	90.8%	89.6%	81.6%	80.6%	101%	99.8%	98.6%	97.6%	97.6%	viability at 0.01 µM [2]: 98.6%; viability at 0.1 µM [2]: 88.8%; viability at 2.5 µM [2]: 76.6%; viability at 5 µM [2]: 68.6%; viability at 10 µM [2]: 59.6%
COc1ccc(Nc2nc(N)c(-c3nc4c(C)cccc4[nH]3)s2)cc1 [Molecule S4-M15, N^2-(4-methoxyphenyl)-5-(4-methyl-1H-benzo[d]imidazol-2-yl)thiazole-2,4-diamine]	92.1%	89.9%	75.7%	70.7%	61.3%	89.1%	82.9%	71.7%	59.7%	48.3%	104%	98.7%	92.7%	81.7%	77.3%	96.1%	94.9%	90.7%	81.7%	71.3%	viability at 0.01 µM [2]: 93.1%; viability at 0.1 µM [2]: 79.7%; viability at 2.5 µM [2]: 68.3%; viability at 5 µM [2]: 59.3%; viability at 10 µM [2]: 49.3%
Cc1ccc(Nc2nc(N)c(-c3nc4ccccc4[nH]3)s2)cc1 [Molecule S4-M9, 5-(1H-benzo[d]imidazol-2-yl)-N2-p-tolylthiazole-2,4-diamine]	100%	98.8%	96.3%	96.3%	96.6%	99.4%	99.9%	99.4%	98.6%	96.9%	123%	101%	100%	98.3%	90.8%	91%	85.8%	79.3%	69.3%	54.6%	viability at 0.01 µM [2]: 89%; viability at 0.1 µM [2]: 79.8%; viability at 2.5 µM [2]: 68.3%; viability at 5 µM [2]: 57.3%; viability at 10 µM [2]: 48.3%
COc1cc2ncnc(Nc3ccc(F)c(Cl)c3)c2cc1OCCCN1CCOCC1 [Gefitinib, reference compound]	55.2%	43.7%	35.3%	29.3%	20.3%						55.2%	43.7%	35.3%	29.3%	20.3%	55.2%	43.7%	35.3%	29.3%	20.3%	
